From US10479997B2, “Compositions and methods for diagnosis and treatment of prostate cancer” (NOVARTIS AG, priority 2014, dated 2019)

How the values were obtained:
PRMT5 [1] = settings: shRNAs disclosed in U.S. Patent Application No. 62/049,004; cited from earlier work
PRMT5 [2] = target: PRMT5 (Homo sapiens, UniProt O14744); settings: substrate E2-F-1; cited from earlier work
[3] = target: T1, PRMT5/MEP50 enzyme complex (Homo sapiens, UniProt O14744); experiment: in vitro biochemical assay: PRMT5/MEP50 enzyme complex with SAM and purified AR LBD (with or without ERG ETS domain); settings: AR LBD/PRMT5 and AR LBD/PRMT5/ETS reactions
T1 construct: purchased
Experimental: To test whether ERG is a substrate of PRMT5, we used 22Rv1 cells to express and immunoprecipitate ERG in the presence and absence of PRMT5. Using a recently generated antibody specific for symmetric dimethyl arginine modification, we verified ERG arginine methylation levels and only observed a faint band which was not altered following PRMT5 knockdown (data not shown). To confirm these findings, we performed in vitro biochemical assays in which we incubated increasing amounts of commercial PRMT5/MEP50 enzyme complex with the methyl donor S-Adenosyl-Methionine (SAM) and either the pointed (PNT) domain or ETS domain of ERG as possible substrates of PRMT5. As a measure of PRMT5 catalytic activity and usage of the methyl donor SAM for substrate methylation, we evaluated and quantified by mass spectrometry the amount of S-Adenosyl-Homocysteine (SAH) produced (data not shown). […] To investigate whether the ligand binding domain (LBD) of AR is a direct substrate of PRMT5, we performed a series of in vitro biochemical assays in which we incubated the PRMT5/MEP50 enzyme complex with the methyl donor S-Adenosyl-Methionine (SAM) and purified AR LBD. […]

T1 sequence (O14744 whole entry, the tested form may be a part): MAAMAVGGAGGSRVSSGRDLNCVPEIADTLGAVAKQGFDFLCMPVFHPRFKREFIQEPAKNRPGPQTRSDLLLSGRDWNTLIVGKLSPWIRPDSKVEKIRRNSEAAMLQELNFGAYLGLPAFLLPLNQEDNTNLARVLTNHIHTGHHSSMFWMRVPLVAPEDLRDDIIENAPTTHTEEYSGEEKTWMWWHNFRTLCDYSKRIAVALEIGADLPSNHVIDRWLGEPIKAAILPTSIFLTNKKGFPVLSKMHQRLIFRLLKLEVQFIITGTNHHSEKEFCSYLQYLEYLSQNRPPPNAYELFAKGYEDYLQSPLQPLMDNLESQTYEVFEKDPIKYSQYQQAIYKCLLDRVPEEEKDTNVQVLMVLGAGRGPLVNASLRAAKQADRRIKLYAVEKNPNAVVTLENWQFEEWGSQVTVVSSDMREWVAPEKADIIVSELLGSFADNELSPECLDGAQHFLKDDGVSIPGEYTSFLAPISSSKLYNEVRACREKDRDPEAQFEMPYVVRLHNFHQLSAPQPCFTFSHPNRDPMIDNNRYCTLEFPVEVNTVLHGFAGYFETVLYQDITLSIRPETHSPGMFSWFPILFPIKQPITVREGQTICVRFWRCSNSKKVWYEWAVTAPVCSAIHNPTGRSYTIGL
T1 sequence (Q9BQA1 whole entry partner, the tested form may be a part): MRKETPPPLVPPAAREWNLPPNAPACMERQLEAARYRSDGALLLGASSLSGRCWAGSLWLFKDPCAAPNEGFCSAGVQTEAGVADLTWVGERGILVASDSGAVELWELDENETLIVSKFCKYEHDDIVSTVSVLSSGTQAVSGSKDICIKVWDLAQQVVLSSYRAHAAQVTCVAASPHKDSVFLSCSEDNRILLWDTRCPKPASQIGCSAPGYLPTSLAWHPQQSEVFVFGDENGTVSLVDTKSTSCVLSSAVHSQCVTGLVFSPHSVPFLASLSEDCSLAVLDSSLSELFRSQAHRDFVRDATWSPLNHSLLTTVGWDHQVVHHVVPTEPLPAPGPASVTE
Chain of PRMT5 (Homo sapiens, UniProt O14744) (O14744 whole entry, the tested form may be a part): as the sequence (O14744 whole entry, the tested form may be a part) above
Chain of PRMT5 (Homo sapiens, UniProt O14744) (Q9BQA1 whole entry partner, the tested form may be a part): as the sequence (Q9BQA1 whole entry partner, the tested form may be a part) above

| Molecule | effectiveness of shRNA to PRMT5 (PRMT5 [1]) | further results |
| --- | --- | --- |
| sh4738: PRMT5 shRNA, target sequence GCCATCCCAACAGAGATCCTA (SEQ ID NO: 8) (the letters are possibly those of the target site) | also effective |  |
| Nc1ncnc2c1ncn2[C@@H]1O[C@H](C[C@@H](N)CC[C@H](N)C(=O)O)C(O)C1O (stereo in doubt) [Sinefungin, 5′-Deoxy-5′-(1,4-diamino-4-carboxybutyl)adenosine] |  | inhibition of PRMT5 activity (PRMT5 [2]): inhibits PRMT5 activity |
| sh4737: PRMT5 shRNA, target sequence GCCAAGTGACCGTAGTCTCAT (SEQ ID NO: 15) | most effective |  |
| sh4736: PRMT5 shRNA, target sequence GCGGATAAAGCTGTATGCTGT (SEQ ID NO: 11) (the letters are possibly those of the target site) | most effective |  |
| O=C(Nc1ccc2c(O)cc(S(=O)(=O)O)cc2c1)Nc1ccc2c(O)cc(S(=O)(=O)O)cc2c1 [AMI-1] |  | AR mono-methylation levels ([3]; arginine mono-methyl antibody): completely blocked; SAH production ([3]; measured by mass spectrometry): completely blocked |
